# Laboratory results from the NIST ThermoML archive (doi:10.1016/j.tca.2017.02.015).
# ± gives the expanded uncertainty stated by the source.
# Legend:
# [1] = molar heat capacity at constant pressure; conditions: Liquid, Flow calorimetry
# [2] = molar heat capacity at constant pressure; xn = mol fraction of the nth substance listed; conditions: Liquid, Flow calorimetry
compound,measurement,setting,value
CCCCCCCCCC(=O)OC [methyl decanoate],molar heat capacity at constant pressure,"[1]; 313.71 K, 100 kPa",383.9 ± 3.9 J/K/mol
same,molar heat capacity at constant pressure,"[1]; 313.82 K, 4070 kPa",382.1 ± 3.9 J/K/mol
same,molar heat capacity at constant pressure,"[1]; 313.83 K, 8030 kPa",380.5 ± 3.8 J/K/mol
same,molar heat capacity at constant pressure,"[1]; 313.99 K, 12010 kPa",378.5 ± 3.8 J/K/mol
same,molar heat capacity at constant pressure,"[1]; 314.01 K, 16140 kPa",376.6 ± 3.8 J/K/mol
same,molar heat capacity at constant pressure,"[1]; 324.79 K, 100 kPa",387.6 ± 3.9 J/K/mol
same,molar heat capacity at constant pressure,"[1]; 324.79 K, 4070 kPa",386 ± 3.9 J/K/mol
same,molar heat capacity at constant pressure,"[1]; 325.01 K, 8030 kPa",384.4 ± 3.9 J/K/mol
same,molar heat capacity at constant pressure,"[1]; 325.06 K, 12010 kPa",382.5 ± 3.9 J/K/mol
same,molar heat capacity at constant pressure,"[1]; 325.2 K, 16140 kPa",379.3 ± 3.8 J/K/mol
same,molar heat capacity at constant pressure,"[1]; 334.12 K, 100 kPa",393.2 ± 4 J/K/mol
same,molar heat capacity at constant pressure,"[1]; 334.33 K, 8030 kPa",388.3 ± 3.9 J/K/mol
same,molar heat capacity at constant pressure,"[1]; 334.53 K, 4070 kPa",390.3 ± 3.9 J/K/mol
same,molar heat capacity at constant pressure,"[1]; 334.6 K, 12010 kPa",386.2 ± 3.9 J/K/mol
same,molar heat capacity at constant pressure,"[1]; 334.84 K, 16140 kPa",384.2 ± 3.9 J/K/mol
CCCCCCCCCC(=O)OC [methyl decanoate] + CCCCCCCCCCCC(=O)OC,molar heat capacity at constant pressure,"[2]; 313.71 K, 100 kPa, x2 = 0",383.9 ± 3.9 J/K/mol
same,molar heat capacity at constant pressure,"[2]; 313.82 K, 4070 kPa, x2 = 0",382.1 ± 3.9 J/K/mol
same,molar heat capacity at constant pressure,"[2]; 313.83 K, 8030 kPa, x2 = 0",380.5 ± 3.8 J/K/mol
same,molar heat capacity at constant pressure,"[2]; 313.99 K, 12010 kPa, x2 = 0",378.5 ± 3.8 J/K/mol
same,molar heat capacity at constant pressure,"[2]; 314.01 K, 16140 kPa, x2 = 0",376.6 ± 3.8 J/K/mol
same,molar heat capacity at constant pressure,"[2]; 324.79 K, 100 kPa, x2 = 0",387.6 ± 3.9 J/K/mol
same,molar heat capacity at constant pressure,"[2]; 324.79 K, 4070 kPa, x2 = 0",386 ± 3.9 J/K/mol
same,molar heat capacity at constant pressure,"[2]; 325.01 K, 8030 kPa, x2 = 0",384.4 ± 3.9 J/K/mol
same,molar heat capacity at constant pressure,"[2]; 325.06 K, 12010 kPa, x2 = 0",382.5 ± 3.9 J/K/mol
same,molar heat capacity at constant pressure,"[2]; 325.2 K, 16140 kPa, x2 = 0",379.3 ± 3.8 J/K/mol
same,molar heat capacity at constant pressure,"[2]; 334.12 K, 100 kPa, x2 = 0",393.2 ± 4 J/K/mol
same,molar heat capacity at constant pressure,"[2]; 334.33 K, 8030 kPa, x2 = 0",388.3 ± 3.9 J/K/mol
same,molar heat capacity at constant pressure,"[2]; 334.53 K, 4070 kPa, x2 = 0",390.3 ± 3.9 J/K/mol
same,molar heat capacity at constant pressure,"[2]; 334.6 K, 12010 kPa, x2 = 0",386.2 ± 3.9 J/K/mol
same,molar heat capacity at constant pressure,"[2]; 334.84 K, 16140 kPa, x2 = 0",384.2 ± 3.9 J/K/mol
CCCCCCCCCCCC(=O)OC [methyl dodecanoate],molar heat capacity at constant pressure,"[1]; 313.97 K, 100 kPa",442.6 ± 4.5 J/K/mol
same,molar heat capacity at constant pressure,"[1]; 313.99 K, 4040 kPa",441.6 ± 4.5 J/K/mol
same,molar heat capacity at constant pressure,"[1]; 314.06 K, 8070 kPa",439.5 ± 4.4 J/K/mol
same,molar heat capacity at constant pressure,"[1]; 314.09 K, 12160 kPa",438.3 ± 4.4 J/K/mol
same,molar heat capacity at constant pressure,"[1]; 314.14 K, 16180 kPa",436.9 ± 4.4 J/K/mol
same,molar heat capacity at constant pressure,"[1]; 323.84 K, 12090 kPa",444.8 ± 4.5 J/K/mol
same,molar heat capacity at constant pressure,"[1]; 323.88 K, 100 kPa",449.5 ± 4.5 J/K/mol
same,molar heat capacity at constant pressure,"[1]; 323.93 K, 4070 kPa",447.2 ± 4.5 J/K/mol
same,molar heat capacity at constant pressure,"[1]; 323.94 K, 16080 kPa",443.3 ± 4.5 J/K/mol
same,molar heat capacity at constant pressure,"[1]; 324.01 K, 8060 kPa",445.8 ± 4.5 J/K/mol
same,molar heat capacity at constant pressure,"[1]; 333.88 K, 100 kPa",456.4 ± 4.6 J/K/mol
same,molar heat capacity at constant pressure,"[1]; 333.96 K, 4050 kPa",453.6 ± 4.6 J/K/mol
same,molar heat capacity at constant pressure,"[1]; 334 K, 8050 kPa",452.1 ± 4.6 J/K/mol
same,molar heat capacity at constant pressure,"[1]; 334.05 K, 12060 kPa",450.5 ± 4.6 J/K/mol
same,molar heat capacity at constant pressure,"[1]; 334.11 K, 16170 kPa",448 ± 4.5 J/K/mol
CCCCCCCCCCCC(=O)OC [methyl dodecanoate] + CCCCCCCCCC(=O)OC,molar heat capacity at constant pressure,"[2]; 313.71 K, 100 kPa, x1 = 0.5001",414.9 ± 4.2 J/K/mol
same,molar heat capacity at constant pressure,"[2]; 313.82 K, 4060 kPa, x1 = 0.5001",413.3 ± 4.2 J/K/mol
same,molar heat capacity at constant pressure,"[2]; 313.83 K, 8100 kPa, x1 = 0.5001",412.3 ± 4.2 J/K/mol
same,molar heat capacity at constant pressure,"[2]; 313.97 K, 100 kPa, x1 = 1",442.6 ± 4.5 J/K/mol
same,molar heat capacity at constant pressure,"[2]; 313.99 K, 4040 kPa, x1 = 1",441.6 ± 4.5 J/K/mol
same,molar heat capacity at constant pressure,"[2]; 313.99 K, 12140 kPa, x1 = 0.5001",410.1 ± 4.1 J/K/mol
same,molar heat capacity at constant pressure,"[2]; 314.01 K, 100 kPa, x1 = 0.6999",426.4 ± 4.3 J/K/mol
same,molar heat capacity at constant pressure,"[2]; 314.01 K, 16150 kPa, x1 = 0.5001",408.9 ± 4.1 J/K/mol
same,molar heat capacity at constant pressure,"[2]; 314.06 K, 8070 kPa, x1 = 1",439.5 ± 4.4 J/K/mol
same,molar heat capacity at constant pressure,"[2]; 314.08 K, 4080 kPa, x1 = 0.6999",425.1 ± 4.3 J/K/mol
same,molar heat capacity at constant pressure,"[2]; 314.09 K, 12160 kPa, x1 = 1",438.3 ± 4.4 J/K/mol
same,molar heat capacity at constant pressure,"[2]; 314.14 K, 16180 kPa, x1 = 1",436.9 ± 4.4 J/K/mol
same,molar heat capacity at constant pressure,"[2]; 314.17 K, 12080 kPa, x1 = 0.6999",421.2 ± 4.3 J/K/mol
same,molar heat capacity at constant pressure,"[2]; 314.18 K, 8140 kPa, x1 = 0.6999",422.7 ± 4.3 J/K/mol
same,molar heat capacity at constant pressure,"[2]; 314.21 K, 16150 kPa, x1 = 0.6999",419.4 ± 4.2 J/K/mol
same,molar heat capacity at constant pressure,"[2]; 314.37 K, 100 kPa, x1 = 0.3001",403.7 ± 4.1 J/K/mol
same,molar heat capacity at constant pressure,"[2]; 314.53 K, 4090 kPa, x1 = 0.3001",402.2 ± 4.1 J/K/mol
same,molar heat capacity at constant pressure,"[2]; 314.71 K, 8010 kPa, x1 = 0.3001",400.6 ± 4 J/K/mol
same,molar heat capacity at constant pressure,"[2]; 314.95 K, 12020 kPa, x1 = 0.3001",397.7 ± 4 J/K/mol
same,molar heat capacity at constant pressure,"[2]; 315.06 K, 16080 kPa, x1 = 0.3001",395.6 ± 4 J/K/mol
same,molar heat capacity at constant pressure,"[2]; 323.53 K, 100 kPa, x1 = 0.3001",412 ± 4.2 J/K/mol
same,molar heat capacity at constant pressure,"[2]; 323.58 K, 4100 kPa, x1 = 0.3001",409.5 ± 4.1 J/K/mol
same,molar heat capacity at constant pressure,"[2]; 323.69 K, 8070 kPa, x1 = 0.3001",406.9 ± 4.1 J/K/mol
same,molar heat capacity at constant pressure,"[2]; 323.84 K, 12080 kPa, x1 = 0.3001",403.9 ± 4.1 J/K/mol
same,molar heat capacity at constant pressure,"[2]; 323.84 K, 12090 kPa, x1 = 1",444.8 ± 4.5 J/K/mol
same,molar heat capacity at constant pressure,"[2]; 323.88 K, 100 kPa, x1 = 1",449.5 ± 4.5 J/K/mol
same,molar heat capacity at constant pressure,"[2]; 323.93 K, 4070 kPa, x1 = 1",447.2 ± 4.5 J/K/mol
same,molar heat capacity at constant pressure,"[2]; 323.94 K, 16080 kPa, x1 = 1",443.3 ± 4.5 J/K/mol
same,molar heat capacity at constant pressure,"[2]; 324.01 K, 8060 kPa, x1 = 1",445.8 ± 4.5 J/K/mol
same,molar heat capacity at constant pressure,"[2]; 324.05 K, 100 kPa, x1 = 0.6999",435.5 ± 4.4 J/K/mol
same,molar heat capacity at constant pressure,"[2]; 324.08 K, 4120 kPa, x1 = 0.6999",433.4 ± 4.4 J/K/mol
same,molar heat capacity at constant pressure,"[2]; 324.13 K, 8050 kPa, x1 = 0.6999",431.3 ± 4.4 J/K/mol
same,molar heat capacity at constant pressure,"[2]; 324.19 K, 12080 kPa, x1 = 0.6999",428.2 ± 4.3 J/K/mol
same,molar heat capacity at constant pressure,"[2]; 324.24 K, 16120 kPa, x1 = 0.6999",426.4 ± 4.3 J/K/mol
same,molar heat capacity at constant pressure,"[2]; 324.39 K, 16190 kPa, x1 = 0.3001",400.5 ± 4 J/K/mol
same,molar heat capacity at constant pressure,"[2]; 324.79 K, 100 kPa, x1 = 0.5001",424.4 ± 4.3 J/K/mol
same,molar heat capacity at constant pressure,"[2]; 324.79 K, 4150 kPa, x1 = 0.5001",421.6 ± 4.3 J/K/mol
same,molar heat capacity at constant pressure,"[2]; 325.01 K, 8140 kPa, x1 = 0.5001",418.7 ± 4.2 J/K/mol
same,molar heat capacity at constant pressure,"[2]; 325.06 K, 12110 kPa, x1 = 0.5001",416.1 ± 4.2 J/K/mol
same,molar heat capacity at constant pressure,"[2]; 325.2 K, 16230 kPa, x1 = 0.5001",413.7 ± 4.2 J/K/mol
same,molar heat capacity at constant pressure,"[2]; 333.55 K, 100 kPa, x1 = 0.3001",418.3 ± 4.2 J/K/mol
same,molar heat capacity at constant pressure,"[2]; 333.71 K, 100 kPa, x1 = 0.6999",442.8 ± 4.5 J/K/mol
same,molar heat capacity at constant pressure,"[2]; 333.76 K, 4130 kPa, x1 = 0.3001",415.8 ± 4.2 J/K/mol
same,molar heat capacity at constant pressure,"[2]; 333.79 K, 8110 kPa, x1 = 0.3001",413.5 ± 4.2 J/K/mol
same,molar heat capacity at constant pressure,"[2]; 333.88 K, 100 kPa, x1 = 1",456.4 ± 4.6 J/K/mol
same,molar heat capacity at constant pressure,"[2]; 333.96 K, 4050 kPa, x1 = 1",453.6 ± 4.6 J/K/mol
same,molar heat capacity at constant pressure,"[2]; 333.97 K, 12160 kPa, x1 = 0.6999",434.7 ± 4.4 J/K/mol
same,molar heat capacity at constant pressure,"[2]; 333.98 K, 4150 kPa, x1 = 0.6999",440.9 ± 4.5 J/K/mol
same,molar heat capacity at constant pressure,"[2]; 334 K, 8050 kPa, x1 = 1",452.1 ± 4.6 J/K/mol
same,molar heat capacity at constant pressure,"[2]; 334.03 K, 12080 kPa, x1 = 0.3001",411.7 ± 4.2 J/K/mol
same,molar heat capacity at constant pressure,"[2]; 334.04 K, 8040 kPa, x1 = 0.6999",439 ± 4.4 J/K/mol
same,molar heat capacity at constant pressure,"[2]; 334.04 K, 16170 kPa, x1 = 0.6999",431.9 ± 4.4 J/K/mol
same,molar heat capacity at constant pressure,"[2]; 334.05 K, 12060 kPa, x1 = 1",450.5 ± 4.6 J/K/mol
same,molar heat capacity at constant pressure,"[2]; 334.11 K, 16170 kPa, x1 = 1",448 ± 4.5 J/K/mol
same,molar heat capacity at constant pressure,"[2]; 334.12 K, 100 kPa, x1 = 0.5001",431.7 ± 4.4 J/K/mol
same,molar heat capacity at constant pressure,"[2]; 334.21 K, 16110 kPa, x1 = 0.3001",408.4 ± 4.1 J/K/mol
same,molar heat capacity at constant pressure,"[2]; 334.33 K, 8140 kPa, x1 = 0.5001",425.5 ± 4.3 J/K/mol
same,molar heat capacity at constant pressure,"[2]; 334.53 K, 4120 kPa, x1 = 0.5001",428.8 ± 4.3 J/K/mol
same,molar heat capacity at constant pressure,"[2]; 334.6 K, 12200 kPa, x1 = 0.5001",423.1 ± 4.3 J/K/mol
same,molar heat capacity at constant pressure,"[2]; 334.84 K, 16030 kPa, x1 = 0.5001",420.7 ± 4.3 J/K/mol
